ChEMBL document CHEMBL1201862, “PubChem BioAssay data set” (2004)
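Cultured in 96-well plates, cells were exposed to test compound for 48 hours across five concentrations. The concentration for 50% growth inhibition is given as GI50.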 Activity calls are given as the source filed them. No stated cut-off is given here; in the data, active = GI50 up to about 1.1 µM and inactive = higher.

Key:
Test in all cases: NCI tumour cell line growth inhibition, 48 h
LOX IMVI = tested on: LOX IMVI
HOP-62 = tested on: HOP-62
HOP-92 = tested on: HOP-92
NCI-H460 = tested on: NCI-H460
786-0 = tested on: 786-0
SK-MEL-5 = tested on: SK-MEL-5
SK-MEL-28 = tested on: SK-MEL-28
RPMI-8226 = tested on: RPMI-8226
CCRF-CEM = tested on: CCRF-CEM
M14 = tested on: M14
SW-620 = tested on: SW-620
TK-10 = tested on: TK-10
HT-29 = tested on: HT-29
OVCAR-8 = tested on: OVCAR-8
DU-145 = tested on: DU-145
ACHN = tested on: ACHN
SK-OV-3 = tested on: SK-OV-3
OVCAR-5 = tested on: OVCAR-5
RXF 393 = tested on: RXF 393

Measured: GI50

CC(C)C(/N=C/c1ccccc1O)C(=O)O (stereo not given)
inactive: LOX IMVI > 100 µM | HOP-62 > 100 µM | HOP-92 > 100 µM | NCI-H460 > 100 µM | 786-0 > 100 µM | SK-MEL-5 > 100 µM | SK-MEL-28 > 100 µM | RPMI-8226 > 100 µM | CCRF-CEM > 100 µM | M14 > 100 µM | SW-620 > 100 µM | TK-10 > 100 µM | HT-29 > 100 µM | OVCAR-8 > 100 µM | DU-145 > 100 µM | ACHN > 100 µM | SK-OV-3 > 100 µM | OVCAR-5 > 100 µM

O=c1[nH]c(=O)n([C@@H]2O[C@H](CO)[C@@H](O)[C@@H]2F)cc1I [FIALURIDINE]
inactive: LOX IMVI 46.3 µM | HOP-62 > 100 µM | HOP-92 > 100 µM | NCI-H460 24 µM | 786-0 > 100 µM | SK-MEL-5 > 100 µM | SK-MEL-28 > 100 µM | CCRF-CEM 4.8 µM | M14 77.6 µM | SW-620 > 100 µM | RXF 393 54.1 µM | TK-10 > 100 µM | HT-29 > 100 µM | OVCAR-8 > 100 µM | DU-145 > 100 µM | ACHN > 100 µM | SK-OV-3 > 100 µM | OVCAR-5 > 100 µM

O=S1OC[C@H](CCCl)O1 (stereo not given in full)
inactive: LOX IMVI 83.6 µM | HOP-62 > 100 µM | HOP-92 > 100 µM | NCI-H460 > 100 µM | 786-0 > 100 µM | SK-MEL-5 > 100 µM | SK-MEL-28 69.5 µM | RPMI-8226 > 100 µM | CCRF-CEM > 100 µM | M14 > 100 µM | SW-620 > 100 µM | TK-10 > 100 µM | HT-29 > 100 µM | OVCAR-8 > 100 µM | DU-145 > 100 µM | ACHN > 100 µM | SK-OV-3 > 100 µM | OVCAR-5 > 100 µM

COc1cc(/C=C/C(C)=O)ccc1OP(=O)(O)O
inactive: LOX IMVI > 100 µM | HOP-62 > 100 µM | HOP-92 > 100 µM | NCI-H460 > 100 µM | 786-0 > 100 µM | SK-MEL-5 > 100 µM | SK-MEL-28 > 100 µM | RPMI-8226 > 100 µM | M14 > 100 µM | SW-620 > 100 µM | RXF 393 > 100 µM | TK-10 > 100 µM | HT-29 > 100 µM | OVCAR-8 > 100 µM | DU-145 > 100 µM | ACHN > 100 µM | SK-OV-3 > 100 µM | OVCAR-5 > 100 µM

CC1=NN(c2cccc(Cl)c2)C2(C1=Cc1cccs1)C(Cl)C(=O)N2c1nc2ccccc2s1 (stereo not given)
inactive: LOX IMVI 19.6 µM | HOP-62 27.6 µM | HOP-92 21.2 µM | NCI-H460 20 µM | 786-0 13.8 µM | SK-MEL-5 17.4 µM | SK-MEL-28 39.4 µM | RPMI-8226 17.9 µM | M14 34.8 µM | SW-620 38.4 µM | RXF 393 21.1 µM | TK-10 28.6 µM | HT-29 21.6 µM | OVCAR-8 20.4 µM | DU-145 33.8 µM | ACHN 20.8 µM | OVCAR-5 18.2 µM

Nc1cc2c(nnn2C2OC(COCc3ccccc3)C(OCc3ccccc3)C2OCc2ccccc2)c(=O)[nH]1 (stereo not given)
inactive: LOX IMVI 14.1 µM | HOP-62 37.8 µM | HOP-92 28.4 µM | NCI-H460 15.9 µM | 786-0 19.6 µM | SK-MEL-5 7.26 µM | SK-MEL-28 46.9 µM | CCRF-CEM 10.3 µM | M14 13.5 µM | SW-620 37 µM | RXF 393 6.75 µM | TK-10 10 µM | HT-29 14.2 µM | OVCAR-8 18.9 µM | DU-145 35.9 µM | ACHN 32.8 µM | SK-OV-3 33.3 µM | OVCAR-5 27.6 µM

O=C1c2ccccc2C(C2c3ccccc3C(=O)c3cc(Br)ccc32)c2ccc(Br)cc21 (stereo not given)
inactive: LOX IMVI > 100 µM | HOP-62 > 100 µM | HOP-92 > 100 µM | 786-0 > 100 µM | SK-MEL-5 > 100 µM | SK-MEL-28 > 100 µM | RPMI-8226 > 100 µM | M14 > 100 µM | SW-620 > 100 µM | RXF 393 > 100 µM | TK-10 > 100 µM | HT-29 > 100 µM | OVCAR-8 > 100 µM | DU-145 > 100 µM | ACHN > 100 µM | SK-OV-3 > 100 µM | OVCAR-5 > 100 µM

CC1=C(C#N)C2C(=C(C)N1)C(N)=Nc1ccccc12 (stereo not given)
inactive: LOX IMVI 36 µM | HOP-62 67.3 µM | HOP-92 12.1 µM | NCI-H460 44.4 µM | 786-0 43 µM | SK-MEL-5 30 µM | SK-MEL-28 63.4 µM | CCRF-CEM 32.5 µM | M14 36.4 µM | SW-620 48.1 µM | RXF 393 38 µM | TK-10 46.8 µM | HT-29 38.3 µM | OVCAR-8 55.6 µM | DU-145 88.7 µM | ACHN 47.6 µM | SK-OV-3 76.4 µM | OVCAR-5 70.5 µM

Cc1cc(=O)oc2cc(SC(=O)N(C)C)ccc12
inactive: LOX IMVI > 100 µM | HOP-62 > 100 µM | HOP-92 > 100 µM | NCI-H460 > 100 µM | 786-0 > 100 µM | SK-MEL-5 > 100 µM | SK-MEL-28 > 100 µM | RPMI-8226 > 100 µM | M14 > 100 µM | SW-620 > 100 µM | RXF 393 > 100 µM | TK-10 > 100 µM | HT-29 > 100 µM | OVCAR-8 > 100 µM | DU-145 > 100 µM | ACHN > 100 µM | SK-OV-3 > 100 µM | OVCAR-5 77.8 µM

C[C@@]1(O)C2CC3CC1(c1ccccc1)CC(/C3=N/O)/C2=N\O (stereo not given in full)
inactive: LOX IMVI > 100 µM | HOP-62 > 100 µM | HOP-92 > 100 µM | NCI-H460 > 100 µM | 786-0 > 100 µM | SK-MEL-5 > 100 µM | SK-MEL-28 > 100 µM | CCRF-CEM > 100 µM | M14 > 100 µM | SW-620 > 100 µM | RXF 393 > 100 µM | HT-29 > 100 µM | OVCAR-8 > 100 µM | DU-145 > 100 µM | ACHN > 100 µM | SK-OV-3 > 100 µM | OVCAR-5 > 100 µM

COc1cc2c(cc1OC)CN1CCCc3cc(OC)c(OC)cc3C1C2 (stereo not given)
inactive: LOX IMVI 25.4 µM | HOP-62 25 µM | HOP-92 21.4 µM | NCI-H460 31.4 µM | 786-0 33.2 µM | SK-MEL-5 36.1 µM | SK-MEL-28 32 µM | CCRF-CEM 48.9 µM | M14 40.6 µM | SW-620 30.5 µM | RXF 393 29.6 µM | TK-10 51.4 µM | HT-29 19.6 µM | OVCAR-8 57.7 µM | DU-145 76 µM | ACHN 34.1 µM | SK-OV-3 63.4 µM | OVCAR-5 51.3 µM
